According to patent publication US11840686B2, “Modulation of prekallikrein (PKK) expression” (Ionis Pharmaceuticals, Inc., priority 2013, dated 2023):
e = 2'-O-(2-methoxyethyl) (MOE); d = 2'-deoxy (DNA)

How the values were obtained:
[1] = tested on: C1-INH mRNA; assay: C1-INH mRNA in liver of mice treated with ISIS 461756 (Example 18); format: in vivo, mouse
Experimental: (§1) Vascular permeability induced by ISIS 461756, an antisense oligonucleotide which targets murine C1 inhibitor mRNA, increases vascular permeability in mice and replicates the pathology of hereditary angioedema. The effect of ISIS 482584 on this model was evaluated.
(§2) One group of 8 mice was treated with 40 mg/kg ISIS 482584 administered subcutaneously twice a week for 3 weeks (weekly dose of 80 mg/kg). A second group of 8 mice was treated with 40 mg/kg of the control oligonucleotide, ISIS 141923, administered subcutaneously twice a week for 3 weeks (weekly dose of 80 mg/kg). A third group of 8 mice was treated with PBS administered subcutaneously twice a week for 3 weeks. On day 14, all the groups were treated with 12.5 mg/kg ISIS 461756 administered subcutaneously twice a week for 3 weeks (weekly dose of 25 mg/kg). A control group of mice was treated with PBS administered subcutaneously twice a week for 3 weeks but was not administered ISIS 461756.
(§3) At the end of the treatment period, all the groups were injected with 30 mg/kg of Evans Blue solution into the tail vein. The mice were sacrificed 30 min after the Evans Blue solution administration and colons, feet, ears, and intestines were harvested. The liver was also harvested for RNA analysis.
(§4) RNA was isolated from the liver for RT-PCR analysis of C1-INH and PKK mRNAs. The primer probe set for C1-INH is RTS3218 (forward sequence […], designated herein as SEQ ID NO: 2234; reverse sequence […], designated herein as SEQ ID NO: 2235; probe sequence […], designated herein as SEQ ID NO: 2236). The primer probe set for PKK is RTS3287 (forward sequence […], designated herein as SEQ ID NO: 2237; reverse sequence […], designated herein as SEQ ID NO: 2238; probe sequence […], designated herein as SEQ ID NO: 2239). The results are presented in Table 79 as percent inhibition compared to the PBS control not treated with ISIS 461756.

[2] = tested on: PKK mRNA; assay: PKK mRNA in liver of mice treated with ISIS 461756 (Example 18); format: in vivo, mouse; settings: liver; all groups ISIS 461756 25 mg/kg/wk; pretreatment PBS or oligonucleotide 80 mg/kg/wk sc 3 weeks
Experimental: as §1, §2, §3, §4

[3] = tested on: vascular permeability induced by ISIS 461756; assay: C1-INH antisense oligonucleotide-induced vascular permeability, Evans Blue OD600 (Example 18); format: in vivo, mouse; settings: Evans Blue OD600; all groups ISIS 461756 25 mg/kg/wk; pretreatment PBS or oligonucleotide 80 mg/kg/wk
Experimental: as §1, §2, §3
The harvested tissues from the feet, colon, and intestines were placed in formamide solution overnight to leach out the Evans Blue dye. The formamide solution containing feet tissue was heated to 55° C. and left overnight. The color intensity of the dye-infused formamide solution was then measured at OD600 nm. The data is presented in Table 80 as percent increase or reduction compared to the PBS control not treated with ISIS 461756.

[4] = Tolerability / clinical observation of cynomolgus monkeys (Example 8); format: in vivo, cynomolgus monkey; settings: cynomolgus monkeys, 40 mg/kg s.c.
Experimental: Cynomolgus monkeys were treated with ISIS antisense oligonucleotides selected from studies described above. Antisense oligonucleotide efficacy and tolerability were evaluated. The human antisense oligonucleotides tested are cross-reactive with the rhesus genomic sequence (GENBANK Accession No. NW_001118167.1 truncated from nucleotides 2358000 to 2391000 and designated herein as SEQ ID NO: 18).
During the study period, the monkeys were observed a minimum of once daily for signs of illness or distress. Any animal experiencing more than momentary or slight pain or distress due to the treatment, injury or illness was promptly reported to the responsible veterinarian and the Study Director. Any animal in poor health or in a possible moribund condition was identified for further monitoring and possible euthanasia. […] The protocols described in the Example were approved by the Institutional Animal Care and Use Committee (IACUC).

[5] = tested on: PKK protein; assay: PKK protein in cynomolgus monkey plasma by ELISA (Example 8); format: in vivo; settings: 40 mg/kg sc
Experimental: Approximately 0.9 mL of blood was collected each time from all available animals at pre-dose, day 17, day 31, day 45, day 59, and day 73, and placed in tubes containing 3.2% sodium citrate. The tubes were centrifuged (3000 rpm for 10 min at room temperature) to obtain plasma. PKK protein levels were measured in the plasma by ELISA. The results are presented in Table 52, expressed as percentage inhibition compared to the PBS control levels.

[6] = cynomolgus monkey, in vivo, sc, 40 mg/kg
Experimental: (§5) Prior to the study, the monkeys were kept in quarantine for a 30-day period, during which the animals were observed daily for general health. The monkeys were 2-4 years old and weighed between 2 and 4 kg. Ten groups of four randomly assigned male cynomolgus monkeys each were injected subcutaneously with ISIS oligonucleotide or PBS. PBS solution or ISIS oligonucleotides at a dose of 40 mg/kg were administered initially with a loading regimen consisting of four doses on the first week of the study (days 1, 3, 5, and 7), followed by a maintenance regimen consisting of once weekly administration starting on Day 14 (weeks 2 to 13). Subcutaneous injections were performed in clock-wise rotations at 4 sites on the back; one site per dose. The injection sites were delineated by tattoo, while sedated using ketamine, and were separated by a minimum of 3 cm.
To evaluate the effect of ISIS oligonucleotides on hepatic function, the monkeys were fasted overnight. Approximately, 1.5 mL of blood samples were collected from all the study groups. Blood was collected in tubes without anticoagulant for serum separation. The tubes were kept at room temperature for a minimum of 90 min and then centrifuged at 3,000 rpm for 10 min. Levels of various liver function markers were measured using a Toshiba 120FR NEO chemistry analyzer (Toshiba Co., Japan).

[7] = cynomolgus monkey, in vivo, sc, 40 mg/kg; remark: listed apart in the source
[8] = cynomolgus monkey, in vivo, sc, 40 mg/kg; remark: listed apart in the source
Experimental: as §5
To evaluate the effect of ISIS oligonucleotides on kidney function, the monkeys were fasted overnight. Approximately, 1.5 mL of blood samples were collected from all the study groups. Blood was collected in tubes without anticoagulant for serum separation. The tubes were kept at room temperature for a minimum of 90 min and then centrifuged at 3,000 rpm for 10 min. Levels of BUN and creatinine were measured using a Toshiba 120FR NEO chemistry analyzer (Toshiba Co., Japan).

[9] = cynomolgus monkey, in vivo, sc, 40 mg/kg; remark: listed apart in the source
[10] = cynomolgus monkey, in vivo, sc, 40 mg/kg; remark: listed apart in the source

| Substance | PKK protein level reduction (%) in plasma relative to control levels ([5]; Day 17) [%] | PKK protein level reduction (%) in plasma relative to control levels ([5]; Day 31) [%] | PKK protein level reduction (%) in plasma relative to control levels ([5]; Day 45) [%] | PKK protein level reduction (%) in plasma relative to control levels ([5]; Day 59) [%] | PKK protein level reduction (%) in plasma relative to control levels ([5]; Day 73) [%] | ALT [6] [IU/L] | AST [6] [IU/L] | Albumin [6] [g/dL] | HCT [7] [%] | Hemoglobin [7] [g/dL] | Platelets [7] [µL⁻¹] | RBC [7] [µL⁻¹] | WBC [7] [µL⁻¹] | Plasma BUN [8] [mg/dL] | Plasma Creatinine [8] [mg/dL] | Urine protein/creatinine ratio [9] | C3 (% of baseline) [10] | CRP [10] [mg/dL] | also measured |
| --- | --- | --- | --- | --- | --- | --- | --- | --- | --- | --- | --- | --- | --- | --- | --- | --- | --- | --- | --- |
| ISIS 461756: 5-10-5 MOE gapmer which targets murine C1 inhibitor mRNA, AAAGTGGTTGATACCCTGGG; SEQ ID NO: 2245 (sugars from the 5' end e5 d10 e5, backbone and methylation of C not given here) | – | – | – | – | – | – | – | – | – | – | – | – | – | – | – | – | – | – | Percent inhibition of C1-INH mRNA expression compared to the untreated PBS control ([1]; liver, all groups ISIS 461756 25 mg/kg/wk, pretreatment PBS or oligonucleotide 80 mg/kg/wk sc 3 weeks): 76%; C1-INH mRNA expression ([1]; mouse liver, 12.5 mg/kg ISIS 461756 s.c. twice a week): significantly reduced C1-INH mRNA expression; Percent inhibition of PKK mRNA expression compared to the untreated PBS control [2]: 0%; Percent change in vascular permeability compared to the untreated PBS control, Colon [3]: 13%; Percent change in vascular permeability compared to the untreated PBS control, Feet [3]: 70%; Percent change in vascular permeability compared to the untreated PBS control, Intestines [3]: 27% |
| ISIS 547445: gapmer targeting human PKK, selected from earlier screens; sequence in a table not shown (antisense GCCACTATAGATGCGCCAAA; gapmer, wing chemistry not given here) | – | – | – | – | – | – | – | – | – | – | – | – | – | – | – | – | – | – | clinical observation, euthanasia [4]: two monkeys treated with ISIS 547445 were euthanized |
| ISIS 547457: antisense oligonucleotide targeting nucleobases 30570-30610 of SEQ ID NO: 10; sequence in a table not shown (AAGGCGATATCATGATTCCC; 5-10-5 MOE gapmer, further chemistry not given here) | 68 | 75 | 79 | 76 | 80 | 52 | 54 | 4.0 | 45 | 13.8 | 367000 | 6.4e+06 | 10000 | 24.3 | 1.0 | 0.03 | 53 % of baseline | 0.3 | – |
| ISIS 547927: antisense oligonucleotide targeting human PKK; sequence in a table not shown (ATGGTCCGACACACAA; deoxy, MOE and cEt modifications, further chemistry not given here) | 8 | 0 | 15 | 10 | 18 | 61 | 59 | 4.2 | 41 | 12.5 | 461000 | 5.2e+06 | 45000 | 22.3 | 1.0 | 0.04 | 73 % of baseline | 0.2 | – |
